In brackets after ≈: the same amount, converted by molar mass.
How the values were obtained:
Cytotoxicity MTT assay [1] = type: cell-based, human; conditions: human
Description: (§1) Compound cytotoxicity was evaluated against HepG2 (ATCC-®HB-8065 liver hepatoceullular carcinoma) and HEK293 (ATCC®CRL-1573, embryonic kidney) human cell lines using standard (3-(4,5-dimethylthiazol-2-yl)−2,5-diphenyltetrazolium bromide (MTT) assay protocol with slight changes. In brief, HepG2 and HEK293 cells (assessed annually for mycoplasma contamination) were seeded as 1.5 × 10^4 cells per well in a clear 96-well tissue culture treated plate in a final volume of 100 μL in Dulbecco’s Modified Eagle Medium (DMEM)(GIBCO-Invitrogen #11995-073), in which 1% of FBS was added. Cells were incubated for 24 h at 37 °C, 5% CO2 to allow cells to attach to the plates. Compounds prepared at 100 µM to 0.046 µM in threefold dilutions were added into each well and incubated for 24 h at 37 °C, 5% CO2. After the incubation, 0.4 mg mL^−1 MTT (3-(4,5-dimethylthiazol-2-yl)−2,5-diphenyltetrazolium bromide) (Invitrogen) was added to each well. The plates were then incubated for 2 h at 37 °C, 5% CO2. The media was removed, and purple formazan crystals were resuspended in 60 μL of DMSO. The absorbance was read at 570 nm using a Polarstar Omega plate reader. The data was then analysed by Prism software. Results are presented as the average percentage of control ± S.D. for each set of duplicate wells using the following equation: percent viability = (ABSTEST – ABSPOSITIVE CTRL / ABSUNTREATED –ABS POSITIVE CTRL)×100.

[2] = system: Methicillin-resistant S. aureus ATCC 43300; test: microbe, parasite or virus in culture; conditions: ATCC 43300, 24 h
Description: (§2) Antimicrobial activity of compounds was tested against a number of bacterial strains by broth microdilution (BMD) assay with MIC determination, including S. aureus (MSSA ATCC® 29213™, MRSA ATCC® 43300™, VISA NARSA NRS1, VISA NARSA NRS4), Streptococcus pneumoniae (MDR ATCC® 700677™) and Enterococcus faecium (MDR VanA ATCC® 51559™). ATCC strains were sourced from the American Type Culture Collection and NRS strains from NARSA (Network on Antimicrobial Resistance in S. aureus) via BEI Resources (www.beiresources.org). All compounds were prepared to 160 µg mL^−1 solution in water from a stock solution of 1 mM concentration.
[…] […] Standards ranged from 64 to 0.03 µg mL^−1 and compounds from 8 to 0.003 µg mL^−1 with final assay volumes of 100 µL per well. Gram-positive bacteria were cultured in Mueller Hinton broth (MHB) (Bactolaboratories, Cat. no. 211443) at 37 °C overnight. A sample of each culture was then diluted 40-fold in fresh MHB and incubated at 37 °C for 2–3 h. […] All the plates were covered and incubated at 37 °C for 24 h. MICs were the lowest concentration showing no visible growth.

Cytotoxicity MTT assay [3] = type: cell-based, human; conditions: human; remark: listed apart in the source
Description: as §1, with “Compounds prepared at 100 µM to 0.046 µM in threefold dilutions were added into each well and incubated for 24 h at 37 °C, 5% CO2.” left out

[4] = system: Multi-drug-resistant S. pneumoniae ATCC 700677; test: microbe, parasite or virus in culture; conditions: ATCC 700677
Description: as §2
(§3) The compounds, along with standard antibiotics were serially diluted twofold across the wells of 96-well non-binding surface (NBS) polystyrene plates (Corning 3641). […] Standards ranged from 64 to 0.03 µg mL^−1 and compounds from 8 to 0.003 µg mL^−1 with final assay volumes of 100 µL per well. Gram-positive bacteria were cultured in Mueller Hinton broth (MHB) (Bactolaboratories, Cat. no. 211443) at 37 °C overnight. A sample of each culture was then diluted 40-fold in fresh MHB and incubated at 37 °C for 2–3 h. […] All the plates were covered and incubated at 37 °C for 24 h. MICs were the lowest concentration showing no visible growth.

[5] = system: Vancomycin-intermediate S. aureus NRS1; test: microbe, parasite or virus in culture; conditions: Vancomycin-intermediate NRS1
Description: as §2, §3

[6] = system: Vancomycin-resistant (VanA) Enterococcus faecium ATCC 51559; test: microbe, parasite or virus in culture; conditions: ATCC 51559
Description: as §2, §3

[7] = system: Bacillus subtilis ATCC 6633; test: microbe, parasite or virus in culture; type: cell-based; conditions: for Ac2Kaa concentration required to neutralise MIC activity / MIC: ATCC 6633, 48 h; for Molar excess of Ac2Kaa ligand required to antagonise antibacterial activity: [ligand]/[antibiotic], B. subtilis ATCC 6633, 24 h
Description: All compounds were dissolved in H2O. Bacillus subtilis ATCC® 6633™ NRS-231 was cultured in MHB at 37 °C for 48 h. A sample of each culture was then diluted 40-fold in fresh MHB and incubated at 37 °C for 18 h. Compounds were added to each row of 96-well NBS plates (NBS, Corning 3641), in duplicate. The tripeptide N,N΄-diacetyl-L-Lys-D-Ala-D-Ala was serially diluted twofold across the compound-containing wells from 6400 to 3 µg mL^−1. To this the resultant mid-log phase cultures were diluted to the final concentration of 5 × 10^5 CFU mL^−1, then added to wells of the compound-containing plates. All the plates were covered and incubated at 37 °C for 24 h.

| Compound | CC50 at 24 h (Cytotoxicity MTT assay [1]) [µM] | MIC MRSA [2] [µg/mL] | CC50 at 24 h (Cytotoxicity MTT assay [3]) [µM] | MIC MDR S.P. [4] [µg/mL] | MIC VISA [5] [µg/mL] | MIC VRE [6] [µg/mL] | Ac2Kaa concentration required to neutralise MIC activity [7] [µg/mL] | MIC [7] [µg/mL] | Molar excess of Ac2Kaa ligand required to antagonise antibacterial activity [7] |
| --- | --- | --- | --- | --- | --- | --- | --- | --- | --- |
| CCCCCCCCCC(=O)NCC(=O)N[C@@H](CO)C(=O)N[C@@H](CO)C(=O)N[C@@H](CCCCN)C(=O)N[C@@H](CO)C(=O)N1CCC[C@H]1C(=O)N[C@@H](CO)C(=O)N[C@@H](CCCCN)C(=O)N[C@@H](CCCCN)C(=O)N[C@@H](CCCCN)C(=O)N[C@@H](CCCCN)C(=O)N[C@@H](CCCCN)C(=O)N[C@@H](CCCCN)C(=O)N1CCC[C@H]1C(=O)NCC(=O)N[C@@H](CC(=O)O)C(=O)N[C@@H](CSSCCNC(=O)[C@H]1NC(=O)[C@H]2NC(=O)[C@H](NC(=O)[C@@H]3NC(=O)[C@H](CC(N)=O)NC(=O)[C@H](NC(=O)[C@@H](CC(C)C)NC)[C@H](O)c4ccc(c(Cl)c4)Oc4cc3cc(c4O[C@@H]3O[C@H](CO)[C@@H](O)[C@H](O)[C@H]3O[C@H]3C[C@](C)(N)[C@H](O)[C@H](C)O3)Oc3ccc(cc3Cl)[C@H]2O)c2ccc(O)c(c2)-c2c(O)cc(O)cc21)C(N)=O [Compound 6] | > 100 | 2.5 (≈ 0.725 µM) | > 100 | 3 (≈ 0.87 µM) | >8 | 1.25 (≈ 0.362 µM) |  |  |  |
| CCCCCCCCCCCC(=O)NCC(=O)N[C@@H](CO)C(=O)N[C@@H](CO)C(=O)N[C@@H](CCCCN)C(=O)N[C@@H](CO)C(=O)N1CCC[C@H]1C(=O)N[C@@H](CO)C(=O)N[C@@H](CCCCN)C(=O)N[C@@H](CCCCN)C(=O)N[C@@H](CCCCN)C(=O)N[C@@H](CCCCN)C(=O)N[C@@H](CCCCN)C(=O)N[C@@H](CCCCN)C(=O)N1CCC[C@H]1C(=O)NCC(=O)N[C@@H](CC(=O)O)C(=O)N[C@@H](CSSCCNC(=O)[C@H]1NC(=O)[C@H]2NC(=O)[C@H](NC(=O)[C@@H]3NC(=O)[C@H](CC(N)=O)NC(=O)[C@H](NC(=O)[C@@H](CC(C)C)NC)[C@H](O)c4ccc(c(Cl)c4)Oc4cc3cc(c4O[C@@H]3O[C@H](CO)[C@@H](O)[C@H](O)[C@H]3O[C@H]3C[C@](C)(N)[C@H](O)[C@H](C)O3)Oc3ccc(cc3Cl)[C@H]2O)c2ccc(O)c(c2)-c2c(O)cc(O)cc21)C(N)=O [Compound 7] | 89 | 0.09 (≈ 0.0259 µM) | 65 | 0.06 (≈ 0.0173 µM) | 1 (≈ 0.288 µM) | 0.02 (≈ 0.00575 µM) |  |  |  |
| CCCCCCCCCCCCCCCC(=O)NCC(=O)N[C@@H](CO)C(=O)N[C@@H](CO)C(=O)N[C@@H](CCCCN)C(=O)N[C@@H](CO)C(=O)N1CCC[C@H]1C(=O)N[C@@H](CO)C(=O)N[C@@H](CCCCN)C(=O)N[C@@H](CCCCN)C(=O)N[C@@H](CCCCN)C(=O)N[C@@H](CCCCN)C(=O)N[C@@H](CCCCN)C(=O)N[C@@H](CCCCN)C(=O)N1CCC[C@H]1C(=O)NCC(=O)N[C@@H](CC(=O)O)C(=O)N[C@@H](CSSCCNC(=O)[C@H]1NC(=O)[C@H]2NC(=O)[C@H](NC(=O)[C@@H]3NC(=O)[C@H](CC(N)=O)NC(=O)[C@H](NC(=O)[C@@H](CC(C)C)NC)[C@H](O)c4ccc(c(Cl)c4)Oc4cc3cc(c4O[C@@H]3O[C@H](CO)[C@@H](O)[C@H](O)[C@H]3O[C@H]3C[C@](C)(N)[C@H](O)[C@H](C)O3)Oc3ccc(cc3Cl)[C@H]2O)c2ccc(O)c(c2)-c2c(O)cc(O)cc21)C(N)=O [Compound 9] | 7 | 0.06 (≈ 0.017 µM) | 4 | 0.125 (≈ 0.0354 µM) | 2 (≈ 0.566 µM) | 8 (≈ 2.26 µM) |  |  |  |
| CCCCCCCCCCCCCC(=O)NCC(=O)N[C@@H](CO)C(=O)N[C@@H](CCCCN)C(=O)N[C@@H](CCCCN)C(=O)N[C@@H](CCCCN)C(=O)N[C@@H](CCCCNC(=O)[C@H]1NC(=O)[C@H]2NC(=O)[C@H](NC(=O)[C@@H]3NC(=O)[C@H](CC(N)=O)NC(=O)[C@H](NC(=O)[C@@H](CC(C)C)NC)[C@H](O)c4ccc(c(Cl)c4)Oc4cc3cc(c4O[C@@H]3O[C@H](CO)[C@@H](O)[C@H](O)[C@H]3O[C@H]3C[C@](C)(N)[C@H](O)[C@H](C)O3)Oc3ccc(cc3Cl)[C@H]2O)c2ccc(O)c(c2)-c2c(O)cc(O)cc21)C(=O)O [Compound 16, nC13CO-GSKKK-K(Vancomycin)-OH] | 53 | 0.06 (≈ 0.0259 µM) | 18 | <0.003 | 0.007 (≈ 0.00302 µM) |  |  |  |  |
| CN[C@H](CC(C)C)C(=O)N[C@H]1C(=O)N[C@@H](CC(N)=O)C(=O)N[C@H]2C(=O)N[C@H]3C(=O)N[C@H](C(=O)N[C@H](C(=O)NCCCC[C@H](NC(=O)[C@H](CCCCN)NC(=O)[C@H](CCCCN)NC(=O)c4ccc(Oc5ccccc5)cc4)C(=O)O)c4cc(O)cc(O)c4-c4cc3ccc4O)[C@H](O)c3ccc(c(Cl)c3)Oc3cc2cc(c3O[C@@H]2O[C@H](CO)[C@@H](O)[C@H](O)[C@H]2O[C@H]2C[C@](C)(N)[C@H](O)[C@H](C)O2)Oc2ccc(cc2Cl)[C@H]1O [Compound 41, POB-KK-K-(Vancomycin)-OH] |  |  |  |  |  |  | 1.56 | 0.06 (≈ 0.0296 µM) | 104 |
| CN[C@H](CC(C)C)C(=O)N[C@H]1C(=O)N[C@@H](CC(N)=O)C(=O)N[C@H]2C(=O)N[C@H]3C(=O)N[C@H](C(=O)N[C@H](C(=O)NCCCC[C@H](NC(=O)[C@H](CCCCN)NC(=O)[C@H](CCCCN)NC(=O)[C@H](CCCCN)NC(=O)[C@H](CCCCNC(=O)c4ccc(Oc5ccccc5)cc4)NC(=O)c4ccc(Oc5ccccc5)cc4)C(=O)O)c4cc(O)cc(O)c4-c4cc3ccc4O)[C@H](O)c3ccc(c(Cl)c3)Oc3cc2cc(c3O[C@@H]2O[C@H](CO)[C@@H](O)[C@H](O)[C@H]2O[C@H]2C[C@](C)(N)[C@H](O)[C@H](C)O2)Oc2ccc(cc2Cl)[C@H]1O [Compound 42, POB2K-KKK-K-(Vancomycin)-OH] |  |  |  |  |  |  | 1600 | ≤ 0.004 | 131,225 |

Source: PMC5750218, “Protein-inspired antibiotics active against vancomycin- and daptomycin-resistant bacteria” (Nature Communications, 2018)
